What is called IC50 is the concentration that gives 50% inhibition.

The source of these data is patent US20250270200A1, “CTPS1 INHIBITORS AND USES THEREOF” (Nimbus Clotho, Inc., priority 2022, published 2025).

The target in the first assay is T1, human CTPS1 (Homo sapiens, UniProt P17812).
T1 sequence (P17812 1-591): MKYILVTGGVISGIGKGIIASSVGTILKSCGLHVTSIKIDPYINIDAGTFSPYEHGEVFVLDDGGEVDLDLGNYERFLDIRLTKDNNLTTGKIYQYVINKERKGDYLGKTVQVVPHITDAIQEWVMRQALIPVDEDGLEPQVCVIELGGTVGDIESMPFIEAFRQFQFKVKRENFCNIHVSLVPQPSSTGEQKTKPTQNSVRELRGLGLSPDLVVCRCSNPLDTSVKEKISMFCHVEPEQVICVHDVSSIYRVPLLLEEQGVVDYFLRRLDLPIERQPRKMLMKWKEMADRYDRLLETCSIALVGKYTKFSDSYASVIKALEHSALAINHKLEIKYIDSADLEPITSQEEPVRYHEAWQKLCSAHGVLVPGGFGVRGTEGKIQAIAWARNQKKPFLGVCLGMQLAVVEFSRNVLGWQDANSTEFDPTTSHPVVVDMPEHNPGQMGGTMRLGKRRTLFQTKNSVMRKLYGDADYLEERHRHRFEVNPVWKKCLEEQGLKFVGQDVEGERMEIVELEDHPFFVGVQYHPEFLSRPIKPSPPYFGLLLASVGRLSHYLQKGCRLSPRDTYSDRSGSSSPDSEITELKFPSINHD
Kind of assay: ADP-Glo assay, human CTPS1 enzyme inhibition. It counts as biochemical. The settings on record: wild-type human CTPS1 25 nM; ATP 120 μM, UTP 160 μM, GTP 60 μM, L-glutamine 100 μM; 25 degrees C.; read-out: ADP-Glo_WT_hCTPS1—25 nM_IC50 (IC50). The procedure, abridged:
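Full-length tagged human CTPS1 (25 nM) pre-incubated 10 min at 25° C with compound, then 10 min with ATP (120 μM) and UTP (160 μM); reaction started with L-glutamine (100 μM) and GTP (60 μM), 1% DMSO, in HEPES pH 7.4, 10 mM Mg2+, 5 mM KCl, 2 mM DTT. Run within linear phase at 25° C; ADP measured by ADP-Glo luminescence.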
Background: ADP-Glo first removes unused ATP, then detects ADP through luciferase.
As for `CCOc1cncc(-c2cnc(C(=O)N[C@@H](c3cccc(NS(=O)(=O)C(F)F)c3)[C@@H](C)CN3CCCCC3)s2)n1` (single isomer, unassigned) [II-11], the IC50 fell in the range of 25 to 50 nM.
On the same count and under the same terms, as for `CCOc1cncc(-c2cnc(C(=O)N[C@@H](c3cccc(NS(=O)(=O)C(F)F)c3)[C@H](C)CN3CCCCC3)s2)n1` (single isomer, unassigned) [II-12], the figure is 5 to 25 nM.
On the same count and under the same terms, as for `O=C(N[C@@H](c1cc(NS(=O)(=O)C2CC2)ccn1)C1CCOCC1)c1nnc(-c2cnn3ccc(Cl)cc23)s1` (single isomer, unassigned) [II-16], the figure is 5 to 25 nM.

Staying with this assay, now noted: wild-type human CTPS1, 25 nM enzyme; ADP-Glo; read-out: ADP-Glo_WT_hCTPS1—25 nM_IC50 (IC50).
In the case of `CCOc1cncc(-c2cnc(C(=O)NC3(c4cc(NS(=O)(=O)C5CC5)ccn4)CC3)s2)n1` [I-179, N-(1-(4-(cyclopropanesulfonamido)pyridin-2-yl)cyclopropyl)-5-(6-ethoxypyrazin-2-yl)thiazole-2-carboxamide], the IC50 lay in the range of 5 to 25 nM.
The same measure, in the same setting: as for `COC[C@@H](NC(=O)c1ncc(-c2cnn3ccc(Cl)cc23)s1)c1cc(NS(=O)(=O)C2CC2)ccn1` (single isomer, unassigned) [I-4], the figure is 5 to 25 nM.
The same measure, in the same setting: for `CCOc1cncc(-c2cnc(C(=O)N[C@@H](c3cc(NS(=O)(=O)C4CC4)ncn3)C3CCOCC3)s2)n1` (single isomer, unassigned) [I-255] the value was 5 to 25 nM; for `O=C(N[C@H](c1cc(NS(=O)(=O)C2CC2)ccn1)[C@@H]1CCOC1)c1ncc(-c2cnn3ccc(Cl)cc23)s1` (single isomer, unassigned) [I-23], 5 to 25 nM; for `CCOc1cncc(-c2cnc(C(=O)N[C@@H](c3cccc(NS(=O)(=O)C(F)F)c3)C3CCOCC3)s2)n1` [I-195, (R)-N-((3-((difluoromethyl)sulfonamido)phenyl)(tetrahydro-2H-pyran-4-yl)methyl)-5-(6-ethoxypyrazin-2-yl)thiazole-2-carboxamide], 5 to 25 nM.
Same read-out and setting: for `CCOc1cncc(-c2cnc(C(=O)N[C@H](c3cccc(NS(=O)(=O)C(F)F)c3)[C@@H](C)O)s2)n1` [I-286, N-((1R,2R)-1-(3-((difluoromethyl)sulfonamido)phenyl)-2-hydroxypropyl)-5-(6-ethoxypyrazin-2-yl)thiazole-2-carboxamide] the value was 5 to 25 nM; for `CCOc1cncc(-c2cnc(C(=O)N[C@@H](Cn3ccnn3)c3cccc(NS(=O)(=O)C(F)F)c3)s2)n1` [I-214, (R)-N-(1-(3-((difluoromethyl)sulfonamido)phenyl)-2-(1H-1,2,3-triazol-1-yl)ethyl)-5-(6-ethoxypyrazin-2-yl)thiazole-2-carboxamide], 5 to 25 nM.
Take `CCOc1cncc(-c2cnc(C(=O)N[C@H](C[C@@H]3CCCCN3C(C)C)c3cc(NS(=O)(=O)C4CC4)ccn3)s2)n1` (single isomer, unassigned) [I-29]: the IC50 was more than 100 nM.
Still for that read-out and setting: as for `CCOc1cncc(-c2ccc(C(=O)N[C@@H](CCN3CCCCC3)c3cc(NS(=O)(=O)C4CC4)ccn3)c(F)c2F)n1` (single isomer, unassigned) [I-6], the figure is more than 100 nM; as for `CCOc1cncc(-c2ccc(C(=O)N[C@H](COC)c3cc(NS(=O)(=O)C4CC4)ccn3)cc2)n1` [I-280, (S)-N-(1-(4-(cyclopropanesulfonamido)pyridin-2-yl)-2-methoxyethyl)-4-(6-ethoxypyrazin-2-yl)benzamide], 25 to 50 nM; as for `O=C(N[C@@H](CN1CCOCC1)c1cc(NS(=O)(=O)C2CC2)ccn1)c1ncc(-c2cnn3ccc(Cl)cc23)s1` [I-145, (S)-5-(5-chloropyrazolo[1,5-a]pyridin-3-yl)-N-(1-(4-(cyclopropanesulfonamido)pyridin-2-yl)-2-morpholinoethyl)thiazole-2-carboxamide], 5 to 25 nM.
On the same count and under the same terms, as for `CCOc1cncc(-c2cnc(C(=O)N[C@H](c3cc(NS(=O)(=O)C4CC4)ccn3)[C@@H]3CC(=O)N(C)C3)s2)n1` [I-119, N-((S)-(4-(cyclopropanesulfonamido)pyridin-2-yl)((R)-1-methyl-5-oxopyrrolidin-3-yl)methyl)-5-(6-ethoxypyrazin-2-yl)thiazole-2-carboxamide], the figure is 25 to 50 nM.
Still for that read-out and setting: as for `CCOc1cncc(-c2cnc(C(=O)N[C@H](c3cc(NS(=O)(=O)C4CC4)ccn3)[C@H]3CCN(C4CCCC4)C3)s2)n1` [I-93, N-((S)-((S)-1-cyclopentylpyrrolidin-3-yl)(4-(cyclopropanesulfonamido)pyridin-2-yl)methyl)-5-(6-ethoxypyrazin-2-yl)thiazole-2-carboxamide], the figure is 5 to 25 nM.
Turning to `CCOc1cncc(-c2cnc(C(=O)N[C@H](c3cc(NS(=O)(=O)C4CC4)ccn3)[C@@H]3CCCN3C)s2)n1` [I-115, N-((S)-(4-(cyclopropanesulfonamido)pyridin-2-yl)((S)-1-methylpyrrolidin-2-yl)methyl)-5-(6-ethoxypyrazin-2-yl)thiazole-2-carboxamide], the IC50 lay in the range of 50 to 100 nM.
As to `CCOc1cncc(-c2cnc(C(=O)N[C@@H](CN3CCOCC3)c3cc(NS(=O)(=O)C4CC4)ncn3)s2)n1` [I-246, (S)-N-(1-(6-(cyclopropanesulfonamido)pyrimidin-4-yl)-2-morpholinoethyl)-5-(6-ethoxypyrazin-2-yl)thiazole-2-carboxamide], the IC50 is 5 to 25 nM.
For `CCOc1cncc(-c2cnc(C(=O)N[C@H](Cn3nccn3)c3cc(NS(=O)(=O)C4CC4)ccn3)s2)n1` [I-158, (R)-N-(1-(4-(cyclopropanesulfonamido)pyridin-2-yl)-2-(2H-1,2,3-triazol-2-yl)ethyl)-5-(6-ethoxypyrazin-2-yl)thiazole-2-carboxamide], the 50% inhibitory concentration (IC50) is 5 to 25 nM.
As to `CCOc1cncc(-c2cnc(C(=O)N[C@]3(c4cc(NS(=O)(=O)C5CC5)ccn4)CCOC3)s2)n1` (single isomer, unassigned) [I-72], the IC50 is 5 to 25 nM.
Same read-out and setting: for `CCOc1cncc(-c2cnc(C(=O)N(C)[C@H](c3cc(NS(=O)(=O)C4CC4)ccn3)[C@H]3CCOC3)s2)n1` [I-63, N-((S)-(4-(cyclopropanesulfonamido)pyridin-2-yl)((R)-tetrahydrofuran-3-yl)methyl)-5-(6-ethoxypyrazin-2-yl)-N-methylthiazole-2-carboxamide] the value was more than 100 nM.
On the same count and under the same terms, as for `C[C@@H](CO)[C@@H](NC(=O)c1ncc(-c2cnn3ccc(Cl)cc23)s1)c1cc(NS(=O)(=O)C2CC2)ccn1` [I-231, 5-(5-chloropyrazolo[1,5-a]pyridin-3-yl)-N-((1R,2R)-1-(4-(cyclopropanesulfonamido)pyridin-2-yl)-3-hydroxy-2-methylpropyl)thiazole-2-carboxamide], the figure is 5 to 25 nM.
On the same count and under the same terms, for `C[C@H](CO)[C@@H](NC(=O)c1ncc(-c2cnn3ccc(Cl)cc23)s1)c1cc(NS(=O)(=O)C2CC2)ccn1` [I-230, 5-(5-chloropyrazolo[1,5-a]pyridin-3-yl)-N-((1R,2S)-1-(4-(cyclopropanesulfonamido)pyridin-2-yl)-3-hydroxy-2-methylpropyl)thiazole-2-carboxamide] the value was not above 5 nM.
For the compound `CCOc1cncc(-c2cnc(C(=O)N[C@@H](c3cc(NS(=O)(=O)C4CC4)ccn3)[C@@H]3CCCN3C)s2)n1` [I-117, N-((R)-(4-(cyclopropanesulfonamido)pyridin-2-yl)((S)-1-methylpyrrolidin-2-yl)methyl)-5-(6-ethoxypyrazin-2-yl)thiazole-2-carboxamide], the IC50 was 5 to 25 nM.
Same read-out and setting: for `C[C@@H](CN1CCCCC1)[C@H](NC(=O)c1ncc(-c2cnn3ccc(Cl)cc23)s1)c1cc(NS(=O)(=O)C2CC2)ccn1` [I-58, 5-(5-chloropyrazolo[1,5-a]pyridin-3-yl)-N-((1S,2S)-1-(4-(cyclopropanesulfonamido)pyridin-2-yl)-2-methyl-3-(piperidin-1-yl)propyl)thiazole-2-carboxamide] the value was 50 to 100 nM; for `CCOc1cncc(-c2cnc(C(=O)N[C@@H](CN3CCOCC3)c3cc(NS(=O)(=O)C4CC4)ncn3)s2)n1` (single isomer, unassigned) [I-247], 5 to 25 nM.
Still for that read-out and setting: for `CC(C)(O)[C@H](NC(=O)c1ncc(-c2cnn3ccc(Cl)cc23)s1)c1cc(NS(=O)(=O)C2CC2)ccn1` [I-277, (R)-5-(5-chloropyrazolo[1,5-a]pyridin-3-yl)-N-(1-(4-(cyclopropanesulfonamido)pyridin-2-yl)-2-hydroxy-2-methylpropyl)thiazole-2-carboxamide] the value was 50 to 100 nM; for `CCOc1cncc(-c2cnc(C(=O)N[C@H](c3cccc(NS(=O)(=O)C(F)F)c3)[C@@H]3COCCO3)s2)n1` [I-199, N-((R)-(3-((difluoromethyl)sulfonamido)phenyl)((R)-1,4-dioxan-2-yl)methyl)-5-(6-ethoxypyrazin-2-yl)thiazole-2-carboxamide], 5 to 25 nM.
The same measure, in the same setting: as for `O=C(N[C@H](c1ccnc(NS(=O)(=O)C2CC2)n1)[C@H]1CCOC1)c1ncc(-c2cnn3ccc(Cl)cc23)s1` [I-260, 5-(5-chloropyrazolo[1,5-a]pyridin-3-yl)-N-((S)-(2-(cyclopropanesulfonamido)pyrimidin-4-yl)((R)-tetrahydrofuran-3-yl)methyl)thiazole-2-carboxamide], the figure is 5 to 25 nM.
